Biological target: T1, LRRC8A (volume-regulated anion channel, VRAC) (Homo sapiens, UniProt Q8IWT6)
T1 construct: endogenous VRAC in WT HAP-1 and HEK-293 cells (current absent in LRRC8A-KO cells); with at least one other LRRC8 subunit (LRRC8B, C, D or E)
T1 sequence (Q8IWT6 1-810): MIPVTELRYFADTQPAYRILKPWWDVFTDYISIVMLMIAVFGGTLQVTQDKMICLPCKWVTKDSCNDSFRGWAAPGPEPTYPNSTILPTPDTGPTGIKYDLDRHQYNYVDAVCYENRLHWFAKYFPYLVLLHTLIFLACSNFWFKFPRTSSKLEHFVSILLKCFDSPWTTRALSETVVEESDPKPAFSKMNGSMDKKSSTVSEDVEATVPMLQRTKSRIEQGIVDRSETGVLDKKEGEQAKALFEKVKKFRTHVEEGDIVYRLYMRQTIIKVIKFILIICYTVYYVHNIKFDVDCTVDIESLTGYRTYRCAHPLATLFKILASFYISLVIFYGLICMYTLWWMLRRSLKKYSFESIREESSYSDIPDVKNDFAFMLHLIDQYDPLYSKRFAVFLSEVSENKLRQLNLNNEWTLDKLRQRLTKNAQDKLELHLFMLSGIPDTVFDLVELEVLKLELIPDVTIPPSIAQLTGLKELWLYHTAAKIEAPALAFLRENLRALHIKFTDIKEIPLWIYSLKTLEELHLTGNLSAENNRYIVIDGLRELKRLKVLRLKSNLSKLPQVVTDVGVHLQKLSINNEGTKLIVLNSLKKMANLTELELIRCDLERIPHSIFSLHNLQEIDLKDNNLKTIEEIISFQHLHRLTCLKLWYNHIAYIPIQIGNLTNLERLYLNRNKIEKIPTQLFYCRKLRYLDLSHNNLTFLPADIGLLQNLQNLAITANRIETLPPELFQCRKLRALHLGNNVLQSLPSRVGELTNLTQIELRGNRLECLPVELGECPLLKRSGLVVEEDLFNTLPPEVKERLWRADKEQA
Test: whole-cell patch clamp of swelling-induced anion current, WT vs LRRC8A-KO cells
Format: cell-based

## CCCCC1(C2CCCC2)Cc2cc(OCCCC(=O)O)c(Cl)c(Cl)c2C1=O (stereo not shown) [DCPIB, 4‐(2‐butyl‐6,7‐dichloro‐2‐cyclopentylindan‐1‐on‐5‐yl) oxybutyric acid]
  whole-cell patch clamp of swelling-induced anion current, WT vs LRRC8A-KO cells: 10 µM

From PMC6900491, “The LRRC8 volume‐regulated anion channel inhibitor, DCPIB, inhibits mitochondrial respiration independently of the channel” (Physiological Reports, 2019)
